Assay results reported in ChEMBL document CHEMBL1149116, “2-Anilino-4-(thiazol-5-yl)pyrimidine CDK inhibitors: synthesis, SAR analysis, X-ray crystallography, and biological activity” (J Med Chem, 2004).

Experiments:
[1] = molecular target: Cyclin-dependent kinase 4 (Homo sapiens, UniProt P11802)
Description: Inhibitory activity against human CDK4 (Cyclin dependent kinase 4)

[2] = molecular target: Cyclin-dependent kinase 2 (Homo sapiens, UniProt P24941)

Cyclin-dependent kinase 4, sequence (P11802 whole entry): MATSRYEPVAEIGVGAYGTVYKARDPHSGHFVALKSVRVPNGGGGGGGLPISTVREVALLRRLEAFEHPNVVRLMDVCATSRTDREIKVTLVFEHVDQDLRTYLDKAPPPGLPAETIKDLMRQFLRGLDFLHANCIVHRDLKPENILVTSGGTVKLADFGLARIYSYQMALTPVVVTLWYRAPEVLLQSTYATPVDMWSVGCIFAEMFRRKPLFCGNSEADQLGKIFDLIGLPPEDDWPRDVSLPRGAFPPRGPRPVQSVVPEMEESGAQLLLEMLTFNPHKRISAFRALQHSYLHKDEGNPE

Row | SMILES | Ki [1] [nM] | Ki [2] [nM]
1 | Cc1nc(C)c(-c2ccnc(N(C)c3cccc([N+](=O)[O-])c3)n2)s1 | > 20000 | > 20000
2 | Cc1nc(-c2ccccn2)sc1-c1ccnc(Nc2cccc([N+](=O)[O-])c2)n1 | > 20000 | > 20000
3 | Cc1nc(C)c(-c2ccnc(N(C)C)n2)s1 | > 20000 | > 20000
4 | Cc1nc(C)c(-c2ccnc(Nc3ccccc3Cl)n2)s1 | > 20000 | > 20000
5 | Cc1nc(C)c(-c2ccnc(Nc3ccc(Cl)cc3)n2)s1 | > 20000 | 2500
6 | CNc1nccc(-c2sc(C)nc2C)n1 | > 20000 | > 20000
7 | Cc1nc(C)c(-c2ccnc(Nc3cccc(C(F)(F)F)c3)n2)s1 | > 20000 | > 20000
8 | Cc1nc(C)c(-c2ccnc(Nc3ccc([N+](=O)[O-])cc3)n2)s1 | > 20000 | 4100
9 | Cc1nc(C)c(-c2ccnc(Nc3ccccc3C(F)(F)F)n2)s1 | > 20000 | > 20000

Other lines, results leading:

Row | Ki [1] [nM] | Ki [2] [nM] | SMILES
10 | 2600 | 80 | Cc1nc(C)c(-c2ccnc(Nc3ccccc3)n2)s1
11 | > 20000 | > 10000 | CCNc1nc(C)c(-c2ccnc(Nc3cccc(O)c3)n2)s1
12 | 1200 | 1200 | Cc1nc(C)c(-c2ccnc(Nc3ccccc3F)n2)s1
13 | 320 | 30 | Cc1nc(N)sc1-c1ccnc(Nc2ccc(O)cc2)n1
14 | 900 | 100 | Cc1nc(C)c(-c2ccnc(Nc3cccc(F)c3)n2)s1
15 | 370 | 110 | CNc1nc(C)c(-c2ccnc(Nc3cccc(O)c3)n2)s1
16 | 320 | 140 | Cc1nc(C)c(-c2ccnc(Nc3ccc(O)cc3)n2)s1
17 | 9400 | 670 | Cc1nc(C)c(-c2ccnc(Nc3cccc(Cl)c3)n2)s1
18 | 5300 | 60 | Cc1nc(N(C)C)sc1-c1ccnc(Nc2cccc([N+](=O)[O-])c2)n1
19 | 1600 | 800 | CNc1nc(C)c(-c2ccnc(Nc3cccc([N+](=O)[O-])c3)n2)s1
20 | 480 | 300 | Cc1nc(C)c(-c2ccnc(Nc3cccc(C#N)c3)n2)s1
21 | 16000 | – | Cc1nc(C)c(-c2ccnc(N)n2)s1
22 | 10600 | 400 | Cc1nc(C)c(-c2ccnc(Nc3cccc(N)c3)n2)s1
